Source: PubChem BioAssay AID1996
In brackets after ≈: the same amount, converted by molar mass.

Details: buffer; pH 7.4; 200.0 µM

Row | SMILES | solubility kinetic [µg/mL]
1 | COc1ccc(-c2nc(C)c(C(C)=O)n2O)cc1[N+](=O)[O-] | 42.3 (≈ 145 µM)
2 | O=C(COc1cccnc1[N+](=O)[O-])c1ccc(Cl)s1 | 37.2 (≈ 125 µM)
3 | CC(=O)Nc1ccc(NC(=O)/C=C/c2ccc(Cl)cc2)cc1 | < 0.3
4 | CC(NC(=O)c1cccs1)C1CCCO1 (stereo not given) | > 33.8
5 | CC(=O)N1CCN(C(=O)COC(=O)/C=C/c2ccc(C(F)(F)F)cc2)CC1 | > 57.7
6 | COc1ccc(N2CCN(C(=O)c3cc4ccccc4o3)CC2)cc1 | < 0.4
7 | Cc1ccc(CNC(=O)C2CCC(=O)N(C3CC3)C2)cc1 (stereo not given) | > 43
8 | Cc1ccccc1C(=O)NC(=S)NC1CC1 | 16.3 (≈ 69.6 µM)
9 | O=C(c1ccncc1)N1CCN(CCc2ccccc2)CC1 | > 44.3
10 | COc1ccc(C)cc1S(=O)(=O)NC1CCCCCC1 | 4.8 (≈ 16.1 µM)
11 | CCOC(=O)c1cccc(NC(=O)c2cc3ccccc3o2)c1 | 0.7 (≈ 2.26 µM)
12 | Cc1c(C(=O)NCC(c2ccco2)N2CCCC2)sc2ccccc12 (stereo not given) | > 53.2
13 | COc1ccc(/C=C/C(=O)Nc2cc(S(=O)(=O)N3CCOCC3)ccc2OC)cc1 | 8 (≈ 18.5 µM)
14 | C=CCNC(=S)N1CCN(CCNC2=CC(=O)CC(C)(C)C2)CC1 | > 52.6
15 | O=C(Nc1ccccc1C(=O)NCCc1ccccc1)c1cnccn1 | 3.2 (≈ 9.24 µM)
16 | COc1ccc(Cl)cc1C(=O)NCCCN1CCOCC1 | > 46.9
17 | Cc1ccc(C)n1-c1ccc(N2CCOCC2)c([N+](=O)[O-])c1 | 29.3 (≈ 97.2 µM)
18 | NC(=O)c1cccnc1OCC(F)(F)F | > 33
19 | COc1cc(C=O)cc(Cl)c1OC(=O)N1CCOCC1 | 39.5 (≈ 132 µM)
20 | S=c1[nH]c2cc(Br)cnc2[nH]1 | 34.4 (≈ 150 µM)
21 | O=C(Nc1ncccc1O)c1ccc2c(c1)OCCO2 | > 40.8
22 | CCc1sc(C(=O)Nc2ccc3c(c2)OCO3)cc1C | 4.9 (≈ 16.9 µM)
23 | Cc1ccc(S(=O)(=O)N(C)C)cc1NC(=O)CCc1ccccc1 | 49.9 (≈ 144 µM)
24 | COc1ccc(C(=O)Nc2ccc(Nc3ccccc3)cc2)cc1Br | < 0.4

Row | SMILES | solubility kinetic [µg/mL]
25 | CC(=O)Nc1ccccc1 | > 20.3
26 | Cc1cc(C)cc(NC(=O)CCN2CCOCC2)c1 | > 39.4
27 | CCCCNC(=O)c1cc2c(C)cc(C)cc2[nH]1 | 2.2 (≈ 9 µM)
28 | C/C(=C/C#N)Nc1ccc(C)cc1 | > 25.8
29 | COc1ccc(CCNC(=O)c2ccc3ccccc3n2)cc1 | 22.2 (≈ 72.5 µM)
30 | Cc1ccc(/C=C/C(=O)N2CCCC(C(N)=O)C2)o1 (stereo not given) | > 39.3
31 | Cc1ccc2c(c1)N(CC(=O)N1CCOCC1)C(=O)CO2 | > 43.5
32 | COc1cc(C(=O)OC(C)C(=O)Nc2ccc3c(c2)OCCO3)cc(OC)c1OC (stereo not given) | 7.2 (≈ 17.2 µM)
33 | Cc1ccc(C(=O)NC(C)c2ccncc2)o1 (stereo not given) | > 34.5
34 | CC(=O)NC1CC2CCCC(C1)N2Cc1ccc(C)cc1 (stereo not given) | > 43
35 | CN1CCN(C(=O)c2cc3ccccc3[nH]2)CC1 | > 36.5
36 | COCCN(C(=S)Nc1ccc(C)cc1)C(C)c1ccco1 (stereo not given) | 3.4 (≈ 10.7 µM)
37 | CC(C)(C)c1csc(NC(=O)CS(=O)(=O)c2ccccc2)n1 | 50.6 (≈ 150 µM)
38 | NS(=O)(=O)c1ccc(-n2cccc2C=O)cc1 | 36.1 (≈ 144 µM)
39 | Cc1nc(NC(=O)CCN2C(=O)C3CC=CCC3C2=O)sc1C (stereo not given) | > 50
40 | CC1CCN(CCC(=O)N/N=C/c2ccc([N+](=O)[O-])cc2)CC1 | > 47.8
41 | CC(=O)c1ccc(NC(=O)c2ccc3nc(C)sc3c2)cc1 | 1.9 (≈ 6.12 µM)
42 | Cn1c(O)c(C=NCCN2CCOCC2)c(=O)n(C)c1=S | > 46.9
43 | N/C(Cc1nc(-c2ccc(F)cc2)cs1)=N\O | 36.4 (≈ 145 µM)
44 | CC(C)CN1CCC(CN(C)Cc2nc(-c3cnccn3)no2)CC1 | 45.2 (≈ 131 µM)
45 | COCCCNS(=O)(=O)c1cc2c3c(c1)C(C)C(=O)N3CCC2 (stereo not given) | > 50.8
46 | N[C@@H](Cc1ccc(O)cc1)C(=O)Nc1ccc2ccccc2c1 | > 46
47 | COC(=O)Nc1ccc(S(=O)(=O)NC2CCCCC2)cc1 | 3.2 (≈ 10.2 µM)
48 | COC1=C(Nc2ccccc2OC)C(=O)c2ccccc2C1=O | 17.2 (≈ 55.6 µM)

Row | SMILES | solubility kinetic [µg/mL]
49 | Cc1ccsc1C(=O)NCC(C)(C)N1CCOCC1 | > 42.4
50 | CCCC(=O)O/N=C(\c1ccccc1)c1ccncc1 | 38.4 (≈ 143 µM)
51 | CC1(C)Cc2cccc(C(=O)Nc3ccc(Cl)cc3)c2O1 | 2.4 (≈ 7.95 µM)
52 | N#CCc1ccc(OC(=O)c2cccnc2Cl)cc1 | > 40.9
53 | O=C(NC1CCCCC1)C(=S)N1CCOCC1 | > 38.5
54 | Cc1ccc2ncnc(-c3ccccc3)c2c1 | 25.5 (≈ 116 µM)
55 | O=Cc1c(N2CCSCC2)nc2ccccn2c1=O | > 41.3
56 | O=C(NCc1ccccc1)C(=O)Nc1nccs1 | 3.1 (≈ 11.9 µM)
57 | CCOC(=O)c1cc(NC(=O)c2cccnc2)ccc1N1CCOCC1 | > 53.3
58 | O=c1c2ccccc2[nH]c2ccccc12 | 4.7 (≈ 24.1 µM)
59 | Cc1ccccc1-c1noc(C(C)NC(=O)c2ccco2)n1 (stereo not given) | 37.5 (≈ 126 µM)
60 | CCC(C)Nc1nc(N)c([N+](=O)[O-])c(NCc2ccccc2)n1 (stereo not given) | 3.6 (≈ 11.4 µM)
61 | CCN(CC(=O)Nc1ccc(NC(C)=O)cc1)C(=O)c1c(C)nn(-c2ccc(F)cc2)c1Cl | > 70.8
62 | CCOC(=O)C1CCN(S(=O)(=O)c2cn(C)cn2)CC1 | > 45.2
63 | Cc1ccc([N+](=O)[O-])cc1S(=O)(=O)NCCc1cn2ccccc2n1 | 35 (≈ 97.1 µM)
64 | Cc1nnc(SCC(=O)NC(=O)NCc2ccco2)s1 | > 46.9
65 | Cc1oc(S(=O)(=O)N(C)C)cc1C(=O)Nc1ccc(F)cc1 | 2.3 (≈ 7.05 µM)
66 | Cc1ccc(S(=O)(=O)NCCOc2cc(C)ccc2C)cc1 | 14.4 (≈ 45.1 µM)
67 | CC(=O)C1C(c2ccccc2)c2c(noc2C)CC1(C)O (stereo not given) | > 42.8
68 | COCCNC(=S)N1CCN(Cc2ccc3c(c2)OCO3)CC1 | 47 (≈ 139 µM)
69 | CN(C)CCN(Cc1cccs1)c1ccccn1.Cl | > 44.7
70 | COc1cccc2cc(C(=O)N3CCCc4ccccc43)oc12 | 15.3 (≈ 49.8 µM)
71 | CCCn1c(C(O)c2cccc(OC)c2)nc2ccccc21 (stereo not given) | 39.4 (≈ 133 µM)
72 | Cc1ccc(C)c(CN2CCSCC2)c1 | 2.1 (≈ 9.49 µM)

Row | SMILES | solubility kinetic [µg/mL]
73 | COc1ccccc1C(=O)O/N=C(\c1ccccc1)c1ccncc1 | 34 (≈ 102 µM)
74 | Cc1onc(-c2ccccc2Cl)c1C(=O)N1CC(C)CC(C)C1 (stereo not given) | > 49.9
75 | CC(=O)Nc1cc(NC(C)=O)cc(-c2nc3ccccc3[nH]2)c1 | > 46.3
76 | CCCN(CC(=O)Nc1ccccc1OC)C(=O)c1nc2nc(C)ccn2n1 | > 57.4
77 | C[N+](C)(C)Cc1ccccc1.[Cl-] | > 27.9
78 | CCOC(=O)C1CCCN(S(=O)(=O)c2c(C)noc2C)C1 (stereo not given) | > 47.5
79 | COc1ccc(CNc2nc3ccc(C)cc3s2)c(OC)c1OC | 15.1 (≈ 43.8 µM)
80 | Cc1nc2ccccc2c(=O)n1-c1ccc(F)cc1F | 36.9 (≈ 136 µM)
81 | O=C1CSC(=Nc2cccc(Cl)c2Cl)N1Cc1cccnc1 | 30.8 (≈ 87.4 µM)
82 | Cc1ccc(NC(=O)C2CCN(S(C)(=O)=O)CC2)cc1Cl | 16.4 (≈ 49.6 µM)
83 | Cc1ccc(OS(=O)(=O)c2cn(C)c(=O)n(C)c2=O)cc1C | > 48.7
84 | CN(Cc1ccccc1)S(=O)(=O)c1ccc(Cl)c(C(=O)N2CCC(C(N)=O)CC2)c1 | > 67.5
85 | CC(C)(C)c1csc(NC(=O)c2cccnc2Cl)n1 | 40.4 (≈ 137 µM)
86 | CCS(=O)(=O)NCCNc1ccc([N+](=O)[O-])cc1 | > 41
87 | Cc1cc(=O)c(C(=O)O)nn1-c1ccccc1Cl | > 39.7
88 | COc1ccc(NC(C)=O)cc1S(=O)(=O)N1CC=C(c2ccccc2)CC1 | 2.6 (≈ 6.73 µM)
89 | Cc1cc(N2CCCC2=O)ccc1S(=O)(=O)NC1CCCCC1 | 29.3 (≈ 87.1 µM)
90 | CCOC(=O)CCCc1ccc(/C(C)=N/NC(N)=S)cc1 | > 46.1
91 | CC(CCc1ccccc1)NC(=O)COC(=O)c1cccn1C (stereo not given) | > 47.2
92 | Cc1cccc(N2CCN(C(=O)c3cc4cc(F)ccc4[nH]3)CC2)c1C | 0.6 (≈ 1.71 µM)
93 | CCOC(=O)c1cc(C(C)(C)C)nc(SC)c1C#N | 1.3 (≈ 4.67 µM)
94 | O=C(COC(=O)CNC(=O)c1ccccc1)Nc1ccc(Cl)cn1 | 15.8 (≈ 45.4 µM)
95 | COc1cc(OC)c(C(=O)O/N=C(\N)c2ccccc2)cc1OC | 45.7 (≈ 138 µM)
96 | CCc1ccc(C2CC(=O)N(c3cccc(F)c3)C3=C2C(=O)OC3)cc1 (stereo not given) | 9.6 (≈ 27.3 µM)

Row | SMILES | solubility kinetic [µg/mL]
97 | O=C(Nc1cccnc1)c1ccccc1Cl | > 34.9
98 | O=CN1CCN(C(=S)Nc2ccc(OC(F)F)cc2)CC1 | > 47.3
99 | CC(C)OC(=O)c1ccc(COC(=O)CNC(=O)c2ccco2)cc1 | 34.8 (≈ 101 µM)
100 | COc1cccc(N=Cc2nc(-c3ccccc3)oc2OC(C)=O)c1 | 10.1 (≈ 30 µM)
101 | Cn1cncc1COC(=O)c1ccc(Cl)cc1 | > 37.6
102 | CCOC(=O)C1CCCN(C(=O)c2ccc3ncsc3c2)C1 (stereo not given) | > 47.8
103 | CC(=O)c1sc(NC(=O)c2cccs2)nc1C | 2 (≈ 7.51 µM)
104 | CC1CCN(C(=O)COC(=O)CCC(=O)c2ccc(Cl)cc2)CC1 | 49.8 (≈ 142 µM)
105 | Cc1ccc(CSc2nccc(-c3c(C)nc4ccccn34)n2)cc1 | 1.6 (≈ 4.62 µM)
106 | COc1ccc(N2C(=O)CSC2c2ccc(F)cc2)cc1 (stereo not given) | > 45.5
107 | CCN(C(=O)CSc1ncccn1)c1cccc2ccccc12 | > 48.5
108 | CC1=C(C)CC(C(=O)NC2CCN(C(C)C)CC2)C(C(=O)O)C1 (stereo not given) | > 48.4
109 | Cc1csc(NC(=O)CCNC(=O)c2ccccc2Cl)n1 | 43.9 (≈ 136 µM)
110 | CCc1cc(C(=O)c2ccc(OC)cc2)c(NC(=O)CN2CCCCC2)s1 | < 0.4
111 | CC(C)(C)c1ccc(C(=O)N2CCN(C(=O)c3cccs3)CC2)cc1 | > 53.5
112 | Cc1ccc(NC(=O)c2ccccc2F)c(NC(=O)c2ccccc2F)c1 | 6.4 (≈ 17.5 µM)
113 | Nc1ncnc2c1ncn2C1OC(CO)C(O)C1O (stereo not given) | > 40.1
114 | N/C(=N\OC(=O)c1ccc(Cl)c([N+](=O)[O-])c1)c1ccccn1 | 2.7 (≈ 8.42 µM)
115 | CN(C)c1nc(Nc2ccc(F)cc2)nc(Oc2ccc(F)cc2)n1 | < 0.1
116 | O=c1[nH]cnc(O)c1C(c1cccc([N+](=O)[O-])c1)c1c(O)nc[nH]c1=O | > 53.6
117 | COC(=O)C1CCN(CC(=O)Nc2ccc3c(c2)OCCO3)CC1 | > 50.2
118 | CC1CCCN(S(=O)(=O)c2ccc([N+](=O)[O-])cc2)C1 (stereo not given) | 2.9 (≈ 10.2 µM)
119 | O=C(Nc1ccccc1)Nc1ccc(Nc2ccccc2)cc1 | < 0.2
120 | Cc1ccc(-c2nc3ccccc3[nH]c2=O)cc1 | 1 (≈ 4.23 µM)
